Assay results: PubChem BioAssay (NCI)
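Results reflect a 48-hour exposure of cells in 96-well plates to compound at five concentrations. GI50 marks 50% less growth. At the TGI there is no net growth.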 Where a SMILES comes first, the peptide text is derived from it. The star is where a group is joined. Cbz = O=C(OCc1ccccc1)*; Boc = CC(C)(C)OC(=O)*; tBu = CC(C)(C)*

Key:
Experiment in all cases: DTP human tumour cell line panel, 48 h
MOLT-4 leukemia = tested on: MOLT-4 leukemia
NCI-H460 lung = tested on: NCI-H460 lung
786-0 renal = tested on: 786-0 renal
RPMI-8226 leukemia = tested on: RPMI-8226 leukemia
HOP-62 NSCLC = tested on: HOP-62 NSCLC
HCT-15 colon = tested on: HCT-15 colon
UACC-257 melanoma = tested on: UACC-257 melanoma
RXF 393 renal = tested on: RXF 393 renal

SMILES	TGI (MOLT-4 leukemia) [µM]	TGI (NCI-H460 lung) [µM]	TGI (786-0 renal) [µM]	TGI (RPMI-8226 leukemia) [µM]	TGI (HOP-62 NSCLC) [µM]	TGI (HCT-15 colon) [µM]	TGI (UACC-257 melanoma) [µM]	TGI (RXF 393 renal) [µM]	GI50 (HOP-62 NSCLC) [µM]	GI50 (MOLT-4 leukemia) [µM]	GI50 (NCI-H460 lung) [µM]	GI50 (RXF 393 renal) [µM]	GI50 (RPMI-8226 leukemia) [µM]	GI50 (HCT-15 colon) [µM]	GI50 (UACC-257 melanoma) [µM]
O=c1c2cc(S(=O)(=O)O)ccc2nc(COc2ccc(Oc3ccc(Cl)cc3Cl)cc2)n1-c1ccc(Cl)cc1Oc1c(Cl)cccc1Cl	> 100	46.5	64.6	64.7	> 100	56.6	86.6								
CC(=O)OCCOCn1cnc2c(Cl)nc(Cl)nc21	40	35	58	33.5	36.4	14.5	36.8								
CC(OC(C)(C)C)C(NC(=O)C(CCCCNC(=O)OC(C)(C)C)NC(=O)C(Cc1c[nH]c2ccccc12)NC(=O)C(Cc1ccccc1)NC(=O)OCc1ccccc1)C(=O)NC(Cc1ccccc1)C(=O)O (stereo unspecified) (Cbz-FWK(Boc)T(tBu)F-OH; configuration not given here)	> 100	> 100	> 100	> 100	> 100	> 100	> 100	> 100							
Cc1ccc(NC(=S)N/N=C(/c2ccccc2)c2ccccn2)cc1	> 12.3	7.05	13.7	> 58.4	17.9	15.6	1.9	12.7							
CC1ON2CCCC2[C@H]1C(=O)N1C2CC3CCC2(CS1(=O)=O)C3(C)C (stereo partly specified)	> 100	> 100	> 100	> 100	> 100	> 100	> 100	> 100							
N#Cc1nc(C2=C(Cl)c3ccccc3OC2)[nH]c1C#N	40.5	75.4	> 100	61		> 100		38.8							
Cc1ccc(NC(=O)c2cccc(OP(=O)(O)Nc3ccc(C)cc3)c2)cc1	> 100	> 100	> 100	> 100	> 100	> 100	> 100	> 100							
Cc1cc(=O)n2nc(CN3CCCCC3)sc2n1	> 100	> 100	> 100	> 100	> 100	> 100	> 100	> 100							
COc1cc(OC)c2c(=O)c(OC)c(-c3ccc4c(c3)OCO4)oc2c1	> 100	> 100	79.3		74.6	> 100	> 100	72.6							
O=C(O)[C@@H]1CSCN1C(=O)[C@@H]1CCC(=S)N1	> 100	> 100	> 100	> 100	> 100	> 100	> 100	> 100							
CN(/N=C/c1ccc(OCc2cccc(COc3ccc(C=O)cc3)n2)cc1)c1cnn(-c2ccc(Cl)cc2Cl)c(=O)c1Cl	> 100	> 100	> 100	> 100	> 100	> 100	> 100	73.2							
CC12CCC([C@H](C(O)C3CCCCC3)C1=O)C2(C)C (stereo partly specified)	> 100	> 100	> 100	> 100	> 100	> 100	> 100	> 100							
CCOP(=O)(O)C1C(CO)OC(n2ccc(=O)[nH]c2=O)C1O (stereo unspecified)	> 100	> 100	> 100	> 100	> 100	> 100	> 100	> 100							
COc1ccc(O)c(/C(C)=N/NC(=S)N(C)C)c1	> 100	> 100	> 100	> 100	> 100	> 100	> 100	> 100							
Cc1[nH]n(C2=NCCN2)c(=O)c1Cc1ccccc1	> 100	> 100	> 100	> 100	> 100	> 100	> 100	> 100							
CC1(C)CC(=O)C(/C=N/c2nc(-c3ccccc3)cs2)=C(O)C1	> 100	> 100	> 100		> 100	63.7	> 100								
O=C(N/N=C\c1cccc(O)c1)c1ccncc1	> 100	> 100	> 100		> 100	> 100	> 100	> 100							
CCNc1cc2c(cc1O)CC[C@@H]1[C@@H]2CC[C@]2(C)[C@@H](O)CC[C@@H]12	46.7	13.7	25.3	63.5	23.2	15	25	20.6	0.584						
COc1ccc(N2C(=O)c3cc(C)cnc3S2(=O)=O)cc1	> 100	> 100	> 100	> 100	> 100	> 100		> 100							
CCCCCCCCCCN(CCCCCCCCCC)C(=O)COc1c2cc(C(C)(C)C)cc1Cc1cc(C(C)(C)C)cc(c1OCC(=O)N(CCCCCCCCCC)CCCCCCCCCC)Cc1cc(C(C)(C)C)cc(c1OCC(=O)N(CCCCCCCCCC)CCCCCCCCCC)Cc1cc(C(C)(C)C)cc(c1OCC(=O)N(CCCCCCCCCC)CCCCCCCCCC)C2	6.34	26.2	23.3		31.4	21.7	29.6	22.3							
O=C1C(Cl)C(c2cccc(Cl)c2)N1c1ccc(-n2c(=S)[nH]c3ccccc3c2=O)cc1 (stereo unspecified)	37.6	35.3	54.9	55.6	73.8	14.4	98.6	29							
CNc1nc2n(CCO)c(-c3ccccc3)c(-c3ccccc3)nc-2c(=O)n1	> 50	> 50	> 50	> 50	> 50	> 50	> 50	> 50							
COC(=O)C1=C(C(=O)OC)c2cc(OC)ccc2C(C(=S)N(C)C)S1 (stereo unspecified)	> 100	> 100	> 100	> 100	> 100	> 100	> 100	> 100							
O=C(Cc1ccccc1)N/N=C/c1ccccc1O	> 100	57.1	> 100	> 100		> 100	58								
Cc1ccc2c(c1)C1(C)OC(C=CC1=O)O2 (stereo unspecified)	0.862	6.03	0.822	1.65	12.2	0.772	3.45	1.56							

SMILES	TGI (MOLT-4 leukemia) [µM]	TGI (NCI-H460 lung) [µM]	TGI (786-0 renal) [µM]	TGI (RPMI-8226 leukemia) [µM]	TGI (HOP-62 NSCLC) [µM]	TGI (HCT-15 colon) [µM]	TGI (UACC-257 melanoma) [µM]	TGI (RXF 393 renal) [µM]	GI50 (HOP-62 NSCLC) [µM]	GI50 (MOLT-4 leukemia) [µM]	GI50 (NCI-H460 lung) [µM]	GI50 (RXF 393 renal) [µM]	GI50 (RPMI-8226 leukemia) [µM]	GI50 (HCT-15 colon) [µM]	GI50 (UACC-257 melanoma) [µM]
CCOC(=O)C1(C(=O)OCC)C[C@H](C)[C@](C)(O)C1	> 100	> 100	> 100	> 100	> 100	> 100	> 100	> 100							
O=c1oc2cc(O)ccc2c(O)c1C(c1ccccc1F)c1c(O)c2ccc(O)cc2oc1=O	> 100	> 100	> 100	83.4	> 100	> 100	> 100	> 100							
N#C/C(N)=C(\C#N)N=CN	> 100	> 100	> 100	> 100	> 100	> 100	> 100								
O=C(O)Cc1cccc2c1OC(c1ccccc1)C(Cl)(C(=O)c1ccccc1)C2=O (stereo unspecified)	62.3	55.8	25.9	47.4	43.6	28.8	32								
O=S1(=O)N(CCNc2nccc(-c3c(-c4cccc(O)c4)nc4sccn34)n2)CCN1Cc1ccccc1	40.3	17.1		14.3	> 50	20.9	43.1	9.37	24.6	7.84	3.45	0.982	4.41	6.05	0.996
C=C(CC[C@@H](C)[C@H]1CC[C@@]2(C)C3=C(CC[C@]12C)[C@@]1(C)CC[C@H](O)[C@@H](C)C1CC3)C(C)C (stereo partly specified)	2.49	2.09	2.07		1.9	2.5	2.7	2.54							
CC(=NNC(=S)Nc1ccc(C)cc1)c1cccc(C(C)=NNC(=S)Nc2ccc(C)cc2)n1	22.9	> 100	> 100	85.8	68.7	> 100	69.7	72							
O=C(O)Cc1cc(O)c(CC(=O)O)cc1O	> 100	> 100	> 100		> 100	> 100	> 100	> 100							
Cc1cccc2c(N)c3cccc(C(=O)NCC[N+](C)(C)Cc4c([N+](=O)[O-])ncn4C)c3nc12	> 100		37.2	> 100	> 50.9	> 100	> 100	> 100							
CC1=CC(=O)N(n2c(Cc3ccccc3)n[nH]c2=O)C1=O	> 100	> 100	> 100	> 100		> 100	> 100	> 100							
C=C1CC[C@H](O)C(C)(C)[C@@H]1CC/C(C)=C/CC/C=C(\C)CC/C=C(\C)CCC=C(C)C	> 100	> 100	> 100		> 100	> 100	> 100	51.9							
CC(C)=CC(=O)C[C@H]1C(=O)O[C@@H]2C[C@H]3C(C)=CC(=O)[C@@H](O)[C@]3(C)[C@H]3[C@@]4(O)OC[C@]32[C@@H]1[C@@H](C)[C@H]4O	> 100	0.743	0.838	0.0447	1.8	0.907	0.608								
COc1cc2c(cc1OC)CCc1cc(OC)c(OC)cc1CC2	> 100	> 100	> 100		> 100	> 100	> 100								
c1csc(-c2cc(-c3cccs3)c(-c3ccsc3)s2)c1	> 100	> 100	> 100	> 100	> 100	> 100	> 100								
COc1ccccc1N1CCN(CCCN2/C(=C(\O)c3ccccc3)C(=O)c3c(C)cc(C)nc3S2(=O)=O)CC1	> 100	> 100	> 100		> 100	> 100	> 100	> 100							
O=c1[nH]c(Nc2nc3ccccc3[nH]2)nc2c1CCC2		> 100	> 100		> 100	> 100	> 100	> 100							
NC(CCC(=O)O)C(=O)N1CCN(c2nc(N3CCCC3)c3nc(Cl)c(NCc4ccccc4)nc3n2)CC1 (stereo unspecified)	24.7	24.9	25.9	34.3	28.4	31	28.5								
CC(=O)OC1(C)C=CC(=O)C=C1	> 100	79.5	47.9	> 100	75.7	> 100	34.4								
Cc1nn(C(=O)Cc2ccccc2)c2c1C(c1ccc(N(C)C)cc1)SC(N)=N2 (stereo unspecified)	> 100	> 100	> 100	> 100	> 100	> 100	> 100								
COc1cc(OC)cc(-c2nc3cc(F)ccc3s2)c1		> 100	23.5	> 100		> 100	> 100	36.6							
CCn1c2ccccc2n2c(=O)c3c(c(C#N)c12)CCCC3	> 100	> 100	> 100			> 100	> 100								
Cc1ccc(-c2c3nc(c(-c4ccc(C)cc4)c4ccc([nH]4)c(-c4ccc(OCC5COC(C)(C)O5)cc4)c4nc(c(-c5ccc(C)cc5)c5ccc2[nH]5)C=C4)C=C3)cc1 (stereo unspecified)	> 31.6	> 31.6	> 31.6	> 100	> 31.6	> 31.6	> 31.6								
Cc1ccc(C)c(COCCOCn2ccc(N)nc2=O)c1	> 100	> 100	> 100		> 100	> 100	> 100	> 100							
CC(C)Oc1ccc2c(c1)OCC1Cc3ccccc3OC21 (stereo unspecified)	> 100		> 100	> 100	> 100	46.2	> 100								
